The test system of one assay is PC-3. Put plainly: Cytotoxicity against human PC3 cells after 3 days by MTT assay. As to conditions: PC-3, 72 h. In kind it is functional, cell-based. For orientation: Tetrazolium dyes change colour on reduction, which living cells bring about.
For assay [1], the species on record is Bos taurus. Briefly: Inhibition of bovine brain tubulin polymerization at 27 uM in presence of microtubule associated proteins.
Assay [2] is filed under the species Bos taurus. Briefly: Inhibition of bovine brain tubulin polymerization at 27 uM in absence of microtubule associated proteins.
Assay [3] is filed under the species Bos taurus. Briefly: Inhibition of bovine brain tubulin polymerization at 40 uM in presence of microtubule associated proteins.
The species entered for assay [4] is Bos taurus. Briefly: Inhibition of bovine brain tubulin polymerization at 40 uM absence of microtubule associated proteins.

Active and inactive are the calls of the source. The calls are words filed in the database; no cut-off is given here.

By IC50 is commonly meant the concentration that gives 50% inhibition. In the assay on PC-3, `Cc1nc2c(-c3ccc(Br)cc3)nc3ccccc3c2c(=O)n1-c1ccccc1` registered an IC50 of 2.2 µM. As to `Cc1ccc(-n2c(C)nc3c(-c4ccc(Cl)cc4)nc4ccccc4c3c2=O)cc1`, the IC50 with PC-3 was above 32 µM. For the compound `Cc1nc2c(-c3ccc(Cl)cc3)nc3ccccc3c2c(=O)n1-c1cccc(Cl)c1`, the IC50 with PC-3 is above 26 µM. Same read-out and setting: as for `Cc1nc2c(-c3ccc(Cl)cc3)nc3ccccc3c2c(=O)n1-c1ccc(Cl)cc1`, the figure is above 28 µM.

Turning to `COc1cc2c(c(OC)c1OC)-c1ccc(OC)c(=O)cc1[C@@H](NC(C)=O)CC2` [COLCHICINE], 0.018 µM corresponded to half-maximal inhibition with PC-3 (IC50). The same measure, in the same setting: in the case of `Cc1nc2c(-c3ccc(Br)cc3)nc3ccccc3c2c(=O)n1-c1cccc(Br)c1` it was above 10 µM.

In the case of `Cc1nc2c(-c3ccc(Br)cc3)nc3ccccc3c2c(=O)n1-c1ccccc1Cl`, in the assay with PC-3, the IC50 is above 28 µM. In the assay with PC-3, `Cc1nc2c(-c3ccc(Cl)cc3)nc3ccccc3c2c(=O)n1-c1ccccc1Cl` returned an IC50 of 2 µM. Same read-out and setting: in the case of `Cc1nc2c(-c3ccc(Cl)cc3)nc3ccccc3c2c(=O)n1-c1ccccc1Br` it was above 42 µM; in that of `COc1ccc(-n2c(C)nc3c(-c4ccc(Br)cc4)nc4ccccc4c3c2=O)cc1`, 2.5 µM. For the compound `Cc1nc2c(-c3ccc(Cl)cc3)nc3ccccc3c2c(=O)n1-c1cccc(Br)c1`, the outcome in the assay filed under Bos taurus [1] and in the assay filed under Bos taurus [2] was inactive. Half-maximal inhibition in the assay on PC-3 (IC50) was put at 1.4 µM. `Cc1nc2c(-c3ccc(Br)cc3)nc3ccccc3c2c(=O)n1-c1ccc(Cl)cc1` displayed an IC50 with PC-3 of 1.9 µM. On to `Cc1nc2c(-c3ccc(Cl)cc3)nc3ccccc3c2c(=O)n1-c1ccccc1`, for which half-maximal inhibition with PC-3 (IC50) required 3.2 µM. The same measure, in the same setting: in the case of `Cc1nc2c(-c3ccc(Cl)cc3)nc3ccccc3c2c(=O)n1-c1ccc(Br)cc1` it was 2.5 µM. On the same count and under the same terms, as for `Cc1nc2c(-c3ccc(Br)cc3)nc3ccccc3c2c(=O)n1-c1ccc(F)cc1`, the figure is 5.5 µM; as for `COc1ccccc1-n1c(C)nc2c(-c3ccc(Cl)cc3)nc3ccccc3c2c1=O`, 10.5 µM. The same measure, in the same setting: as for `Cc1ccc(-n2c(C)nc3c(-c4ccc(Br)cc4)nc4ccccc4c3c2=O)cc1`, the figure is above 21.3 µM; as for `Cc1nc2c(-c3ccc(Br)cc3)nc3ccccc3c2c(=O)n1-c1ccccc1Br`, above 20 µM; as for `Cc1ccccc1-n1c(C)nc2c(-c3ccc(Cl)cc3)nc3ccccc3c2c1=O`, above 38 µM.

Compound `Cc1nc2c(-c3ccc(Br)cc3)nc3ccccc3c2c(=O)n1-c1cccc(Cl)c1` showed an IC50 in the assay with PC-3 above 25 µM. Still for that read-out and setting: in the case of `COc1ccccc1-n1c(C)nc2c(-c3ccc(Br)cc3)nc3ccccc3c2c1=O` it was 6.7 µM; in that of `Cc1nc2c(-c3ccc(Br)cc3)nc3ccccc3c2c(=O)n1-c1ccc(Br)cc1`, 3.3 µM; in that of `Cc1nc2c(-c3ccc(Cl)cc3)nc3ccccc3c2c(=O)n1-c1ccc(F)cc1`, 4 µM. As for `COc1ccc(-n2c(C)nc3c(-c4ccc(Cl)cc4)nc4ccccc4c3c2=O)cc1`, the outcome in the assay listed under Bos taurus [3] and in the assay filed under Bos taurus [4] was inactive. Moreover, 1.6 µM corresponded to half-maximal inhibition in the assay with PC-3 (IC50). Compound `Cc1ccccc1-n1c(C)nc2c(-c3ccc(Br)cc3)nc3ccccc3c2c1=O` displayed an IC50 in the assay with PC-3 above 30 µM.

(Values after ChEMBL document CHEMBL1142916, “Synthesis and biological activity of 2,5-diaryl-3-methylpyrimido[4,5-c]quinolin-1(2H)-one derivatives” (Bioorg Med Chem, 2007).)
